For assay [1], the target named is T1, RNA cytidine acetyltransferase (Homo sapiens, UniProt Q9H0A0).
T1 sequence (Q9H0A0 whole entry): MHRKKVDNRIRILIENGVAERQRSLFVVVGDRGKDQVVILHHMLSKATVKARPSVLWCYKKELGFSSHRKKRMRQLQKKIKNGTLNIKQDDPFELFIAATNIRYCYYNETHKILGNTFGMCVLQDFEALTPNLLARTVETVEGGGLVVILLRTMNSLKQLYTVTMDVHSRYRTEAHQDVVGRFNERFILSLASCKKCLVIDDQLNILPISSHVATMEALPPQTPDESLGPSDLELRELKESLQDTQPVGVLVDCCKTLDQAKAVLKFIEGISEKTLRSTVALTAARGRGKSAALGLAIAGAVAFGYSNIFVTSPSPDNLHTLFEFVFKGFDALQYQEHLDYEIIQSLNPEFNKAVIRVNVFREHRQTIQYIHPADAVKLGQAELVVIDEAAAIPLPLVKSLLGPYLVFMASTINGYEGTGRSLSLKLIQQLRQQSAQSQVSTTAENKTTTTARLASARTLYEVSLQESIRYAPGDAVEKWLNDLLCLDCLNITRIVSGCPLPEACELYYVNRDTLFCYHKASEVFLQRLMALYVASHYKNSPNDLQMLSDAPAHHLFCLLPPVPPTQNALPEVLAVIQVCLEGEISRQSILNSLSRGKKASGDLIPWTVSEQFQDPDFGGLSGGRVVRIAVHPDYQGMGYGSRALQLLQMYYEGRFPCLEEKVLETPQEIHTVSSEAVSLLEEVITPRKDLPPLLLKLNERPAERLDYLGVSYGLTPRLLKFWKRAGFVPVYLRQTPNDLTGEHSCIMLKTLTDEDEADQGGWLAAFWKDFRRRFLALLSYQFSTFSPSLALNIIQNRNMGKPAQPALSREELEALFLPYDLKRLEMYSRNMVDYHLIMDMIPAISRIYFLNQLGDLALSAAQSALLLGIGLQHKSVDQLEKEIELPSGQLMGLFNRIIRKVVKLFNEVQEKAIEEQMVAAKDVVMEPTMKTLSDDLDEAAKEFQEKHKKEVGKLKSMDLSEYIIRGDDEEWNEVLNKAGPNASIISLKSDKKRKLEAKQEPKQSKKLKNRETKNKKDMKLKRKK

In assay [2] the target is T2, Serine/threonine-protein kinase PLK4 (Homo sapiens, UniProt O00444).
T2 sequence (O00444 whole entry): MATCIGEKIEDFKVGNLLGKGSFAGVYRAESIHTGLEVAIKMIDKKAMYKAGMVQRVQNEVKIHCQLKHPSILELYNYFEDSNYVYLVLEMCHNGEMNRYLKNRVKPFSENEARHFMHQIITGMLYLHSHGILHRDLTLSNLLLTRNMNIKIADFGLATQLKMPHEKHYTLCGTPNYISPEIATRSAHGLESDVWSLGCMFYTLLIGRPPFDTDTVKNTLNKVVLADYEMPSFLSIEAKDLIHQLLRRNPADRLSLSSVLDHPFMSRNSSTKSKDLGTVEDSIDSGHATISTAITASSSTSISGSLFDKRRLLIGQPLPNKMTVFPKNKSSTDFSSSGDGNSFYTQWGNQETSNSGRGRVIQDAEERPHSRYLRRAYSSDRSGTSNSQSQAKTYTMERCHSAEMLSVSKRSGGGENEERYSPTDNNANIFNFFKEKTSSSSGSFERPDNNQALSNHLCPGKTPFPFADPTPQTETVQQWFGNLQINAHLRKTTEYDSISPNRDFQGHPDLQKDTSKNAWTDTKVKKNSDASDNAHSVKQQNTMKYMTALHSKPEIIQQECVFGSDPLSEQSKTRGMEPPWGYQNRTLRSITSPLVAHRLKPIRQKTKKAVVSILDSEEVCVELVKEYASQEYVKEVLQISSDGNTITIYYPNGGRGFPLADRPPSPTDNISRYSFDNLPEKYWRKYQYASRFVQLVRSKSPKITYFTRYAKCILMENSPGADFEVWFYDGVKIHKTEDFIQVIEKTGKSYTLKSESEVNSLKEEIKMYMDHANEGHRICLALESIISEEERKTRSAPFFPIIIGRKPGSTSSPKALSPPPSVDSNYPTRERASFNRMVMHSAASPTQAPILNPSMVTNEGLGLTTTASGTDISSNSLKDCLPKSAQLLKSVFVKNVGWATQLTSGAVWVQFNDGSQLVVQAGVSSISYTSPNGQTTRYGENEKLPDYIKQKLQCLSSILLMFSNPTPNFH

In assay [3] the target is T3, Signal recognition particle receptor subunit alpha (Homo sapiens, UniProt P08240).
T3 sequence (P08240 whole entry): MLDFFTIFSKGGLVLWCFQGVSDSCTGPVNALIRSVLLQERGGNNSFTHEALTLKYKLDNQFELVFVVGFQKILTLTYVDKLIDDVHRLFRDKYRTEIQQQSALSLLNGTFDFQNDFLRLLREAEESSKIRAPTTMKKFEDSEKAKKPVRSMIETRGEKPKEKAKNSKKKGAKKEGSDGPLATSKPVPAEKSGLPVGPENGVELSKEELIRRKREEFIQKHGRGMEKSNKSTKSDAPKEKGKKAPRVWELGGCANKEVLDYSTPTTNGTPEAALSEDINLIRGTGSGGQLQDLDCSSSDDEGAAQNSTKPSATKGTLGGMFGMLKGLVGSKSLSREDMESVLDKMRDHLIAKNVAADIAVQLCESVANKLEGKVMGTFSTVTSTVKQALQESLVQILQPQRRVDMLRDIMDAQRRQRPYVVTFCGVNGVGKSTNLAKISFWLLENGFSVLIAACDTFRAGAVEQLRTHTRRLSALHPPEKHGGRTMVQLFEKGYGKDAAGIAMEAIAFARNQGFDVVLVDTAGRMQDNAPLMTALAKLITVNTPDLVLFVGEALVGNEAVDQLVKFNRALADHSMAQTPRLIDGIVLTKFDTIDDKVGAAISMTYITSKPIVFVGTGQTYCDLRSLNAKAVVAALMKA

A further assay has as its target TGF-beta receptor type-2 (Homo sapiens, UniProt P37173).

Active and inactive are the calls of the source.

For orientation: Kd means the equilibrium constant for the complex coming apart.
Also: in the data inactive means no Kd found up to 30 µM.

TGF-beta receptor type-2, sequence (P37173 whole entry): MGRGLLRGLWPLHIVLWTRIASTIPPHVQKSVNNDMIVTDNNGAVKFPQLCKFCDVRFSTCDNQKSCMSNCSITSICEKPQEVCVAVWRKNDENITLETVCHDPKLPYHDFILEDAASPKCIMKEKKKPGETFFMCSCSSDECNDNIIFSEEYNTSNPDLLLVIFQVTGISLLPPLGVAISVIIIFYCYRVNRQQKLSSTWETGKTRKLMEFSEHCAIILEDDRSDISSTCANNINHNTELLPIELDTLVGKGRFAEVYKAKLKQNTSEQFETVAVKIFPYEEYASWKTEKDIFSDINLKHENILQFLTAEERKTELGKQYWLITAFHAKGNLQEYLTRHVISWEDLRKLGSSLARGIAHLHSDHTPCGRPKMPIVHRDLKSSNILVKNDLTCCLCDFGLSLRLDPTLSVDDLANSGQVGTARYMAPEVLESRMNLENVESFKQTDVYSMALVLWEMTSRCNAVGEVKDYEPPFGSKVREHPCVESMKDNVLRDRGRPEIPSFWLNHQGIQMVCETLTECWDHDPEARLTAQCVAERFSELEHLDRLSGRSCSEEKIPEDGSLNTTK

In the case of `CN1CC[C@@H](c2c(O)cc(O)c3c(=O)cc(-c4ccccc4Cl)oc23)[C@@H]1CO`, the Kd (in assay [1]; in assay [2]; in assay [3]; at TGF-beta receptor type-2) was > 30 µM (inactive) each time.

Take `C=CC(=O)N1CCC(Oc2cc3c(Nc4ccc(Cl)c(Cl)c4F)ncnc3cc2OC)CC1` [POZIOTINIB]: the Kd (in assay [1]; in assay [2]; in assay [3]; on TGF-beta receptor type-2) was > 30 µM (inactive) in each case.

For the compound `Cn1cc(-c2ccc3nnc(C(F)(F)c4ccc5ncccc5c4)n3n2)cn1` [JNJ-38877605], the Kd (in assay [1]; in assay [2]; in assay [3]; at TGF-beta receptor type-2) was > 30 µM (inactive) in each case.

With `Cc1ccc(-n2nc(C(C)(C)C)cc2NC(=O)NCc2cc(F)ccc2Oc2ccc3c(cnn3CCO)c2)cc1` [PEXMETINIB], the Kd (in assay [1]; in assay [2]; in assay [3]; on TGF-beta receptor type-2) was > 30 µM (inactive) in each case.

Consider `Cc1c(F)cc(C(=O)NC2CC2)cc1-c1ccc(C(=O)NCC(C)(C)C)cn1` [LOSMAPIMOD], for which the Kd (in assay [1]; in assay [2]; in assay [3]; at TGF-beta receptor type-2) was > 30 µM (inactive) throughout.

Turning to `COc1cc(N2CCC(N3CCN(C)CC3)CC2)ccc1Nc1ncnc(Nc2ccccc2S(=O)(=O)C(C)C)n1` [ASP-3026], the Kd in assay [1] was > 30 µM (inactive); in assay [2], 0.07 µM (active); in assay [3], > 30 µM (inactive); at TGF-beta receptor type-2 it was > 30 µM (inactive).

Take `CNC(=O)c1ccc(-c2cnc3ncc(Cc4ccc5ncccc5c4)n3n2)cc1F` [CAPMATINIB]: the Kd (in assay [1]; in assay [2]; in assay [3]; on TGF-beta receptor type-2) was > 30 µM (inactive) each time.

As to `C[C@@H](Nc1cc(F)cc(F)c1)c1cc(C(=O)N(C)C)cc2c(=O)cc(N3CCOCC3)oc12` [AZD-8186], the Kd (in assay [1]; in assay [2]; in assay [3]; at TGF-beta receptor type-2) was > 30 µM (inactive) each time.

On to `CN1CCC(COc2cnc(-c3cccc(Cn4nc(-c5cccc(C#N)c5)ccc4=O)c3)nc2)CC1` [TEPOTINIB], for which the Kd (in assay [1]; in assay [2]; in assay [3]; at TGF-beta receptor type-2) was > 30 µM (inactive) each time.

As for `CCc1cnn2c(NCc3ccc[n+]([O-])c3)cc(N3CCCC[C@H]3CCO)nc12` [DINACICLIB], the Kd (in assay [1]; in assay [2]; in assay [3]; at TGF-beta receptor type-2) was > 30 µM (inactive) throughout.

On to `CNC(=O)c1cc(Oc2ccc(NC(=O)Nc3ccc(Cl)c(C(F)(F)F)c3)c(F)c2)ccn1` [REGORAFENIB], for which the Kd (in assay [1]; in assay [2]; in assay [3]; on TGF-beta receptor type-2) was > 30 µM (inactive) in each case.

For the compound `COc1cc2nccc(Oc3ccc(NC(=O)Nc4cc(C)on4)c(Cl)c3)c2cc1OC` [TIVOZANIB], the Kd (in assay [1]; in assay [2]; in assay [3]; on TGF-beta receptor type-2) was > 30 µM (inactive) throughout.

On to `O=C(O)[C@]1(Cc2cccc(Nc3nccs3)n2)CC[C@@H](Oc2cccc(Cl)c2F)CC1` [MK-5108], for which the Kd was > 30 µM (inactive) in assay [1], 0.183 µM (active) in assay [2], > 30 µM (inactive) in assay [3] and > 30 µM (inactive) at TGF-beta receptor type-2.

`COc1cc(OC)c(/C=C/S(=O)(=O)Cc2ccc(OC)c(NCC(=O)O)c2)c(OC)c1` [RIGOSERTIB]: the Kd (in assay [1]; in assay [2]; in assay [3]; at TGF-beta receptor type-2) was > 30 µM (inactive) throughout.

With `CC[C@@H]1C(=O)N(C)c2cnc(Nc3ccc(C(=O)N[C@H]4CC[C@H](N5CCN(CC6CC6)CC5)CC4)cc3OC)nc2N1C(C)C` [VOLASERTIB], the Kd (in assay [1]; in assay [2]; in assay [3]; on TGF-beta receptor type-2) was > 30 µM (inactive) throughout.

In the case of `Cc1cc(-c2cc(O)ccc2Cl)cc2nnc(Nc3ccc(OCCN4CCCC4)cc3)nc12`, the Kd (in assay [1]; in assay [2]; in assay [3]; at TGF-beta receptor type-2) was > 30 µM (inactive) each time.

Regarding `Cc1cc2c(F)c(Oc3ncnn4cc(OC[C@@H](C)OC(=O)[C@H](C)N)c(C)c34)ccc2[nH]1` [BRIVANIB ALANINATE], the Kd (in assay [1]; in assay [2]; in assay [3]; on TGF-beta receptor type-2) was > 30 µM (inactive) each time.

For the compound `CN1CCC(CNc2ccc3ncc(-c4cccc(OC(F)(F)F)c4)n3n2)CC1` [SGI-1776], the Kd (in assay [1]; in assay [2]; in assay [3]; at TGF-beta receptor type-2) was > 30 µM (inactive) throughout.

Turning to `CC[C@H](Nc1ncnc2[nH]cnc12)c1nc2cccc(F)c2c(=O)n1-c1ccccc1` [IDELALISIB], the Kd (in assay [1]; in assay [2]; in assay [3]; on TGF-beta receptor type-2) was > 30 µM (inactive) throughout.

As for `COC(=O)N[C@@H](C)CNc1nccc(-c2cn(C(C)C)nc2-c2cc(Cl)cc(NS(C)(=O)=O)c2F)n1` [ENCORAFENIB], the Kd (in assay [1]; in assay [2]; in assay [3]; on TGF-beta receptor type-2) was > 30 µM (inactive) each time.

For `O=c1sn(-c2cccc3ccccc23)c(=O)n1Cc1ccccc1` [TIDEGLUSIB], the Kd (in assay [1]; in assay [2]; in assay [3]; on TGF-beta receptor type-2) was > 30 µM (inactive) each time.

These data come from ChEMBL document CHEMBL3991601, “The target landscape of clinical kinase drugs” (Science, 2017).
